Measured values from patent publication US8859549B2, “Potassium channel modulators” (AbbVie, Inc., priority 2011, dated 2014).

Molecular target: T1, KCNQ 2/3 channels (Homo sapiens, UniProt O43525+O43526)
T1 construct: expressed in transfected cells; host or cells: HEK293
Test: KCNQ 2/3 channel activation, thallium flux FLIPR assay (BTC-AM dye)
Type: cell-based
Conditions: for Emax: HEK293, maximum response relative to the response of 10 μM retigabine (set at 100%), HEK293 KCNQ2/KCNQ3 cells, read-out: % MAX; for EC50: HEK293 cells stably expressing human KCNQ2 and KCNQ3 subunits, thallium-induced fluorescence, 4 min compound incubation
Outline: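 HEK293 cells stably expressing human KCNQ2/KCNQ3 were loaded with BTC-AM (3 μg/mL, 2 h, RT) and preincubated with compound for 4 min in pH 7.3 gluconate buffer containing 0.1 mM ouabain. Flux was triggered by 6 mM TlNO3/10 mM K2SO4 and read for 3 min; EC50 came from summed responses over basal, with maximum relative to 10 μM retigabine (100%).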

Emax [%]	EC50 [nM]	Compound
123	30.3	O=C(Cc1ccc(Cl)cc1)Nn1nc(SCc2ccccc2)c2ccccc2c1=O [Example 213, N-[4-(benzylsulfanyl)-1-oxophthalazin-2(1H)-yl]-2-(4-chlorophenyl)acetamide]
1.91	–	Cc1cc(C)c(CC(=O)Nn2nc(N3CCOCC3)c3ccccc3c2=O)c(C)c1 [Example 168, N-[4-(morpholin-4-yl)-1-oxophthalazin-2(1H)-yl]-2-(2,4,6-trimethylphenyl)acetamide]
85	621	O=C(Cc1ccc(Cl)cc1)Nn1nc(S(=O)(=O)c2ccncc2)c2ccccc2c1=O [Example 203, 2-(4-chlorophenyl)-N-[1-oxo-4-(pyridin-4-ylsulfonyl)phthalazin-2(1H)-yl]acetamide]
18.7	–	O=C(Cc1ccccc1F)Nn1nc(N2CCOCC2)c2ccccc2c1=O [Example 148, 2-(2-fluorophenyl)-N-[4-(morpholin-4-yl)-1-oxophthalazin-2(1H)-yl]acetamide]
62.7	1320	CC(C)(C)COC(=O)NCc1nn(NC(=O)Cc2ccc(Cl)cc2)c(=O)c2ccccc12 [Example 184, 2,2-dimethylpropyl[(3-{[(4-chlorophenyl)acetyl]amino}-4-oxo-3,4-dihydrophthalazin-1-yl)methyl]carbamate]
3	–	Cc1ccc(C)c(CC(=O)Nn2nc(N3CCOCC3)c3ccccc3c2=O)c1 [Example 167, 2-(2,5-dimethylphenyl)-N-[4-(morpholin-4-yl)-1-oxophthalazin-2(1H)-yl]acetamide]
13.4	–	O=C(CC1CC2CCC1C2)Nn1nc(-c2ccnc(O)c2)c2ccccc2c1=O (racemic) [Example 46, (±)-2-[(exo)-bicyclo[2.2.1]hept-2-yl]-N-[4-(2-hydroxypyridin-4-yl)-1-oxophthalazin-2(1H)-yl]acetamide]
14.2	–	CC(C)(C)NC(=O)Cc1nn(NC(=O)Cc2ccc(Cl)cc2)c(=O)c2ccccc12 [Example 122, N-{4-[2-(tert-butylamino)-2-oxoethyl]-1-oxophthalazin-2(1H)-yl}-2-(4-chlorophenyl)acetamide]
164	920	O=C(Cc1ccc(Cl)cc1)Nn1nc(N2CCSCC2)c2ccccc2c1=O [Example 91, 2-(4-chlorophenyl)-N-[1-oxo-4-(thiomorpholin-4-yl)phthalazin-2(1H)-yl]acetamide]
93	–	O=C(Cc1ccc(C(F)(F)F)cc1)Nn1nc(N2CCOCC2)c2ccccc2c1=O [Example 161, N-[4-(morpholin-4-yl)-1-oxophthalazin-2(1H)-yl]-2-[4-(trifluoromethyl)phenyl]acetamide]
73	–	O=C(CC1CC2CCC1C2)Nn1nc(C(=O)N2CCOCC2)c2ccccc2c1=O (racemic) [Example 95, (±)-2-[(exo)-bicyclo[2.2.1]hept-2-yl]-N-[4-(morpholin-4-ylcarbonyl)-1-oxophthalazin-2(1H)-yl]acetamide]
34	–	O=C(CC1(O)CCCCC1)Nn1nc(-c2ccnc(Cl)c2)c2ccccc2c1=O [Example 71, N-[4-(2-chloropyridin-4-yl)-1-oxophthalazin-2(1H)-yl]-2-(1-hydroxycyclohexyl)acetamide]
16.6	–	O=C(Cc1ccc(Cl)cc1)Nn1nc(S(=O)(=O)c2cc[n+]([O-])cc2)c2ccccc2c1=O [Example 196, 2-(4-chlorophenyl)-N-{4-[(1-oxidopyridin-4-yl)sulfonyl]-1-oxophthalazin-2(1H)-yl}acetamide]
51.7	–	COc1ccc(CC(=O)Nn2nc(N3CCOCC3)c3ccccc3c2=O)cc1OC [Example 172, 2-(3,4-dimethoxyphenyl)-N-[4-(morpholin-4-yl)-1-oxophthalazin-2(1H)-yl]acetamide]
87.3	5350	CCOC(=O)NCc1nn(NC(=O)Cc2ccc(Cl)cc2)c(=O)c2ccccc12 [Example 85, ethyl[(3-{[(4-chlorophenyl)acetyl]amino}-4-oxo-3,4-dihydrophthalazin-1-yl)methyl]carbamate]
110	2560	O=C(Cc1ccc(Br)cc1)Nn1nc(N2CCOCC2)c2ccccc2c1=O [Example 155, 2-(4-bromophenyl)-N-[4-(morpholin-4-yl)-1-oxophthalazin-2(1H)-yl]acetamide]
137	201	O=C(CC12CC3CC(CC1C3)C2)Nn1nc(-c2ccc(C(F)(F)F)nc2)c2ccccc2c1=O [Example 211, 2-(hexahydro-2,5-methanopentalen-3a(1H)-yl)-N-{1-oxo-4-[6-(trifluoromethyl)pyridin-3-yl]phthalazin-2(1H)-yl}acetamide]
18	–	O=C(Cc1cc(F)ccc1F)Nn1nc(N2CCOCC2)c2ccccc2c1=O [Example 176, 2-(2,5-difluorophenyl)-N-[4-(morpholin-4-yl)-1-oxophthalazin-2(1H)-yl]acetamide]

Emax [%]	EC50 [nM]	Compound
10.5	–	O=C(Cc1ccc(Cl)cc1)Nn1nc(CCO)c2ccccc2c1=O [Example 121, 2-(4-chlorophenyl)-N-[4-(2-hydroxyethyl)-1-oxophthalazin-2(1H)-yl]acetamide]
139	209	Cc1ccsc1-c1nn(NC(=O)C[C@@H]2C[C@@H]3C=C[C@H]2C3)c(=O)c2ccccc12 [Example 17, 2-[(1S,2S,4S)-bicyclo[2.2.1]hept-5-en-2-yl]-N-[4-(3-methylthiophen-2-yl)-1-oxophthalazin-2(1H)-yl]acetamide]
39.9	6870	O=C(Cc1ccc(O)cc1)Nn1nc(N2CCOCC2)c2ccccc2c1=O [Example 144, 2-(4-hydroxyphenyl)-N-[4-(morpholin-4-yl)-1-oxophthalazin-2(1H)-yl]acetamide]
160	42.3	CN(Cc1ccccc1)c1nn(NC(=O)CC2CC3CCC2C3)c(=O)c2ccccc12 (racemic) [Example 37, (±)-N-{4-[benzyl(methyl)amino]-1-oxophthalazin-2(1H)-yl}-2-[(exo)-bicyclo[2.2.1]hept-2-yl]acetamide]
13	–	CC(C)(C)CNC(=O)Cc1nn(NC(=O)Cc2ccc(Cl)cc2)c(=O)c2ccccc12 [Example 123, 2-(4-chlorophenyl)-N-[4-{2-[(2,2-dimethylpropyl)amino]-2-oxoethyl}-1-oxophthalazin-2(1H)-yl]acetamide]
150	9.05	O=C(CC1CC2CCC1C2)Nn1nc(Oc2ccccc2)c2ccccc2c1=O (racemic) [Example 39, (±)-2-[(exo)-bicyclo[2.2.1]hept-2-yl]-N-(1-oxo-4-phenoxyphthalazin-2(1H)-yl)acetamide]
130	4460	O=C(Cc1cc(F)cc(F)c1)Nn1nc(N2CCOCC2)c2ccccc2c1=O [Example 1, 2-(3,5-difluorophenyl)-N-[4-(morpholin-4-yl)-1-oxophthalazin-2(1H)-yl]acetamide]
114	2900	O=C(Cc1cccc(Br)c1)Nn1nc(N2CCOCC2)c2ccccc2c1=O [Example 154, 2-(3-bromophenyl)-N-[4-(morpholin-4-yl)-1-oxophthalazin-2(1H)-yl]acetamide]
155	2040	O=C(CC1CC2CCC1C2)Nn1nc(C(=O)Nc2ccc(Cl)cc2)c2ccccc2c1=O (racemic) [Example 108, (±)-3-{[(exo)-bicyclo[2.2.1]hept-2-ylacetyl]amino}-N-(4-chlorophenyl)-4-oxo-3,4-dihydrophthalazine-1-carboxamide]
6.78	–	O=C(CC1CCOC1)Nn1nc(-c2ccnc(Cl)c2)c2ccccc2c1=O (stereo not drawn) [Example 67, N-[4-(2-chloropyridin-4-yl)-1-oxophthalazin-2(1H)-yl]-2-(tetrahydrofuran-3-yl)acetamide]
42.2	–	Nc1ccc(S(=O)(=O)c2nn(NC(=O)Cc3ccc(Cl)cc3)c(=O)c3ccccc23)cc1 [Example 115, N-{4-[(4-aminophenyl)sulfonyl]-1-oxophthalazin-2(1H)-yl}-2-(4-chlorophenyl)acetamide]
144	25.3	O=C(CC1CC2CCC1C2)Nn1nc(N2CCCCC2)c2ccccc2c1=O (racemic) [Example 25, (±)-2-[(exo)-bicyclo[2.2.1]hept-2-yl]-N-[1-oxo-4-(piperidin-1-yl)phthalazin-2(1H)-yl]acetamide]
109	152	O=C(Cc1cc(F)cc(F)c1)Nn1nc(SCc2ccccc2)c2ccccc2c1=O [Example 212, N-[4-(benzylsulfanyl)-1-oxophthalazin-2(1H)-yl]-2-(3,5-difluorophenyl)acetamide]
37.3	146	CC(C)(CC(=O)Nn1nc(S(=O)(=O)c2ccc(C#N)cc2)c2ccccc2c1=O)c1ccccc1 [Example 225, N-{4-[(4-cyanophenyl)sulfonyl]-1-oxophthalazin-2(1H)-yl}-3-methyl-3-phenylbutanamide]
112	2810	O=C(Cc1cc(F)cc(F)c1)Nn1nc(-c2ccccn2)c2ccccc2c1=O [Example 18, 2-(3,5-difluorophenyl)-N-[1-oxo-4-(pyridin-2-yl)phthalazin-2(1H)-yl]acetamide]
161	142	O=C(CC1CC2CCC1C2)Nn1nc(NCc2ccccc2)c2ccccc2c1=O (racemic) [Example 34, (±)-N-[4-(benzylamino)-1-oxophthalazin-2(1H)-yl]-2-[(exo)-bicyclo[2.2.1]hept-2-yl]acetamide]
5.96	–	COC(=O)N[C@H](C(=O)NCc1nn(NC(=O)Cc2ccc(Cl)cc2)c(=O)c2ccccc12)C(C)C [Example 183, methyl[(2S)-1-{[(3-{[(4-chlorophenyl)acetyl]amino}-4-oxo-3,4-dihydrophthalazin-1-yl)methyl]amino}-3-methyl-1-oxobutan-2-yl]carbamate]
